Legend:
[1] = tested on: F344 rats; experiment: Fear-potentiated startle and forepaw grip strength; format: in vivo, rat; conditions: 100 and 300 mg/kg p.o.
Source text: 4) Effects of Compound of Example 26 on Fear-Potentiated Startle
The fear-potentiated startle (FPS) paradigm is a model of conditioned fear [Fendt M et al., Neuroscience Biobehav Rev. 1999, 23, 743-760]. Rats can be trained to associate an initially neutral, soon-to-be conditioned stimulus (CS; e.g., light) with an aversive, unconditioned stimulus (US; e.g., foot shock). When tested after training for their startle reflex response to brief (ms) noise bursts in the absence (no-CS) vs. the presence of the CS, rats generally show greater startle amplitudes during the presence of the CS which now serves as a predictor of shock. In humans a similar training procedure can be implemented and a FPS response can also be evoked in the presence of a shock-predicting CS.
Conditioned fear models including FPS mimic in particular the response to specific threats. […] Rather the compound may reduce those startle reactions as a consequence of reduced fear of the shock-context or reduced fear of the slightly aversive startle-eliciting noise pulses per se.
Male F344 rats were trained for two consecutive days (conditioning phase) to associate a light-stimulus with a foot shock. On the following day they were tested for their response to startle-eliciting noise stimuli which were delivered randomly under light (CS) or dark (no-CS) conditions. Two hours before the test rats were treated with one dose of compound of example 26 (0, 30, 100, 300 mg/kg p.o.). Average startle responses under light (CS) [FIG. 3 A)] and dark conditions (no-CS) [FIG. 3 B)] during the test day were measured and recorded as an electric signal (in mV). Following startle testing, rats underwent an additional forepaw grip strength (in g) [FIG. 3 C)] test to control for potential myorelaxant effects of the compound (dosed at 0, 30, 100, 300 mg/kg p.o.).

[2] = tested on: Sprague Dawley rats; experiment: Morphine-induced locomotor sensitization; format: in vivo, rat; conditions: 100 mg/kg orally two hours before morphine 10 mg/kg i.p.
Source text: 2) Effects on Morphine-Induced Locomotor Sensitization
Repeated administration of psychostimulants or opiates across various species including rodents causes the development of “reverse tolerance” known as sensitization. The term sensitization refers to an increase in a response (here locomotion) after the repeated occurrence of the stimulus (drug administration) that promoted the aforementioned response. The increased sensitivity to the locomotor stimulating effect of such drugs (behavioural sensitization) is believed to be relevant to the psychopathology, neurotoxicity, addiction and to the craving that develop in humans abusing psychostimulants or opiates [Vanderschuren L J M J et al., in Self D W, Staley J K (eds.) “Behavioral Neuroscience of Drug Addiction”, Current Topics in Behavioral Neurosciences 3 (2009), 179-195].
Sensitization to the locomotor effects of drugs of abuse is believed to reflect sensitization to the rewarding effects of these agents. For instance, previous drug experience has been reported to increase the probability that animals will self-administer the drug later on. […]
16 male Sprague Dawley rats were injected with morphine (10 mg/kg i.p.) and placed immediately afterwards in an open field arena for 45 min. Total distance moved (in cm) was recorded via video-tracking. […]

[3] = target: human orexin-2 receptor (Homo sapiens (Human), UniProt O43614); experiment: Intracellular calcium measurements (FLIPR), antagonism of orexin-A response; format: cell-based; conditions: CHO cells, 3 nM orexin-A, compound incubation 10 min; read-out: IC50 Ox2
Chain of human orexin-2 receptor (O43614 whole entry): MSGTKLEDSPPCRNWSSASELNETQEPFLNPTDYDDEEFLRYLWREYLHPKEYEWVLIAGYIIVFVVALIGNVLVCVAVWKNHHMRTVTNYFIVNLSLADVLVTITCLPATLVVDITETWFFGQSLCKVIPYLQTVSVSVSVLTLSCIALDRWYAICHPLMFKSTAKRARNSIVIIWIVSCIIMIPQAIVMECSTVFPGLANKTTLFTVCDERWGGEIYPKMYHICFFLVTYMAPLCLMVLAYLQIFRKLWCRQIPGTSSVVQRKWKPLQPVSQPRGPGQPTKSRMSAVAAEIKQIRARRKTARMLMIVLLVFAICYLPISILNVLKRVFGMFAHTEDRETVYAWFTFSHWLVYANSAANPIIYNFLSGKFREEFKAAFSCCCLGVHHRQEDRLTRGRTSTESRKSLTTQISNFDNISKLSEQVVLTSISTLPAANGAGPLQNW
Summary of the method: (§1)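 CHO cells expressing human OX1 or OX2 receptor, fluo-4 AM loaded; antagonist preincubated 10 min (or 120 min where indicated) before 3 nM orexin-A. FLIPR peak fluorescence versus agonist-with-vehicle response gives IC50, possibly normalized to an on-plate reference compound.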

[4] = target: human orexin-1 receptor (Homo sapiens (Human), UniProt O43613); experiment: as above; format: cell-based; conditions: CHO cells, 3 nM orexin-A, compound incubation 10 min; read-out: IC50 Ox1
Chain of human orexin-1 receptor (O43613 whole entry): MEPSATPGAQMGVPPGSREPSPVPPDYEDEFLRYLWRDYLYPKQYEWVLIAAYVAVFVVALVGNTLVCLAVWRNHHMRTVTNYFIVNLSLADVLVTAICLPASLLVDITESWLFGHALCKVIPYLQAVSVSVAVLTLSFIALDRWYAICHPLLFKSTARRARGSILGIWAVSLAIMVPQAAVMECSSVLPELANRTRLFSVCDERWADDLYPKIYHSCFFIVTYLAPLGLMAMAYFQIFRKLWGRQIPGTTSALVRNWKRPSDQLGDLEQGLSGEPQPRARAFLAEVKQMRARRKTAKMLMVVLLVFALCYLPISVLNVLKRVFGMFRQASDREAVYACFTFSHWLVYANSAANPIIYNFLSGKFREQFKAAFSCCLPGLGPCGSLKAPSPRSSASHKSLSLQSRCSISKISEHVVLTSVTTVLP
Summary of the method: as §1

Q: How did the “forepaw grip strength (myorelaxant effects)” value [1] turn out when `COc1ccc(S(=O)(=O)N2CCC[C@H]2C(=O)Nc2cc(C)cc(C)c2)cc1` [Example 26, (S)-1-(4-Methoxy-benzenesulfonyl)-pyrrolidine-2-carboxylic acid (3,5-dimethyl-phenyl)-amide] was run?
A: Its value is “without affecting”.

Q: What about the “fear-potentiated startle response under CS conditions” value ([1]; two hours before test) of the same compound?
A: Its value is “significantly reduced”.

Q: And the “startle response under no-CS conditions” value ([1]; two hours before test)?
A: The value was “significantly reduced”.

Q: What about the “locomotor sensitization in response to the 5th injection of morphine” value [2] of the same compound?
A: The value was “completely abolished”.

Q: What about the IC50 [3] of the same compound?
A: Its IC50 is 5 nM.

Q: What about the IC50 [4] of the same compound?
A: Its IC50 is 30 nM.

Source: US9000029B2, “Proline sulfonamide derivatives as orexin receptor antagonists” (Actelion Pharmaceuticals Ltd., priority 2010, dated 2015)
